What was measured:
Type in all cases: cell-based, human
[1] = tested on: hPSC-derived ventricular cardiomyocytes; experiment: Cardiomyocyte proliferation/expansion, factors added day 10 to day 16; settings: CHIR 1 μM or IGF2 25 ng/ml
Description: The EBs were dissociated as described above. The following antibodies were used for staining: mouse anti-Ki67 (DAKO, 1:100) and rabbit anti-cardiac isoform of cTNT (ThermoFisher Scientific, 1:500). The following secondary antibodies were used for detection: donkey anti-mouse IgG-APC (BD Pharmigen™, 1:500), or donkey anti-rabbit IgG-PE (Jackson ImmunoResearch, 1:500). Detailed antibody information is described in the Key Resources Table. Cells were fixed for 20 mins at 4 C with 4% PFA in PBS followed by permeabilization using 90% methanol for 20 mins at 4° C. Cells were washed with PBS containing 0.5% BSA (Sigma) and stained with unconjugated primary antibodies in FACS buffer overnight at 4° C. Stained cells were washed with PBS with 0.5% BSA and stained with secondary antibodies in FACS buffer for 30 mins at 4° C. Stained cells were analyzed using the LSR II Flow cytometer (BD PharMingen™). Data were analyzed using FlowJo™ software (Tree Star). At day 5, the EBs were transferred to StemPro™-34 with rhVEGF (5 ng/ml) for another 5 days and then to DMEM high glucose (Life Technologies) with 0.5 mg/mL human serum albumin (Sigma), ascorbic acid, transferrin, insulin (10 ng/ml, Sigma), CHIR (1 μM, Bio-Techne), and IGF2 (25 ng/ml, Bio-Techne) from day 10 to day 16. […] The cells were then harvested, counted, and analyzed for expression of compact and trabecular genes by RT-qPCR. […]

[2] = tested on: HEY2, MYCN, ANF, BMP10 expression; experiment: RT-qPCR of compact and trabecular markers after 6 days with factors; settings: factors day 10-16
Description: (§1) Total RNA from samples was isolated using RNAqueous™-micro Kit including RNase-free DNase treatment (invitrogen). RNA from dissected ventricular and atrial tissue of human fetal hearts was isolated using the TRIzol® method (ThermoFisher) and treated with DNase (Ambion®). Isolated RNA was reverse transcribed into cDNA using oligo (dT) primers and random hexamers and iScript™ Reverse Transcriptase (ThermoFisher). QRT-PCR was performed on an EP Real-Plex MasterCycler® (Eppendorf®) using QuantiFast® SYBR Green PCR kit (QIAGEN). The copy number of each gene relative to the house keeping gene TBP.
For these studies, we used our previously published protocol to generate cardiomyocytes (Lee, supra). […] Using this timeframe as an indication of the proliferative stage of ventricular development, between days 10 and 16 of differentiation, we added the small molecule GSK-3 inhibitor CHIR-99021 (“CHIR”; a WNT pathway agonist), or IGF2, or both, to the day 10 cell population (FIG. 1D). As a control, we added neuregulin 1 (NRG) to the cultures as it promotes the development of the trabecular myocardium in the developing heart (see, e.g., Del Monte-Nieto et al., Nature (2018) 557(7705):439-45; and Odiete et al., Circ Res. (2012) 111(10):1376-85). The cells were cultured with these factors for 6 days. The cells were then harvested, counted, and analyzed for expression of compact and trabecular genes by RT-qPCR. […] The addition of both factors promoted the greatest expansion in cell number, resulting in a 2-fold increase. […] It had little effect on HEY2, which was already expressed at reasonable levels within the population. IGF2 signaling had no effect on the expression of these genes. Addition of NRG reduced the expression of HEY2 and increased the expression of ANF, indicative of specification of a trabecular fate.

[3] = tested on: compact ventricular populations; experiment: cTNT and Ki67 flow cytometry after 2 days XAV (day 18)
Description: The EBs were dissociated by incubation in Collagenase type 2 (0.5 mg/ml, Worthington) in HANKs buffer overnight at room temperature followed by TrypLE™ for 5 mins at 37° C. The following antibodies were used for staining: anti-SIRPa-PeCy7 (Biolegend, 1:1000), anti-CD36-FITC (BD PharMingen™, 1:200), anti-LDLR-BV421 (BD PharMingen™, 1:100), anti-cardiac isoform of cTNT (ThermoFisher Scientific, 1:2000), or anti-myosin light chain 2 (Abcam,1:1000). For unconjugated primary antibodies, the following secondary antibodies were used for detection: goat anti-mouse IgG-APC (BD PharMingen™, 1:500), or donkey anti-rabbit IgG-PE (Jackson ImmunoResearch, 1:500). Detailed antibody information is described in the Key Resources Table. For cell-surface marker analyses, cells were stained for 30 min at 4° C. in FACS buffer consisting of PBS with 5% fetal calf serum (FCS) (Wisent) and 0.02% sodium azide. For intracellular staining, cells were fixed for 20 mins at 4° C. with 4% PFA in PBS followed by permeabilization using 90% methanol for 20 mins at 4° C. Cells were washed with PBS containing 0.5% BSA (Sigma) and stained with unconjugated primary antibodies in FACS buffer overnight at 4° C. Stained cells were washed with PBS with 0.5% BSA and stained with secondary antibodies in FACS buffer for 30 mins at 4° C. Stained cells were analyzed using the LSR II Flow cytometer (BD PharMingen™). Data were analyzed using FlowJo™ software (Tree Star).
The EBs were dissociated as described above. The following antibodies were used for staining: mouse anti-Ki67 (DAKO, 1:100) and rabbit anti-cardiac isoform of cTNT (ThermoFisher Scientific, 1:500). The following secondary antibodies were used for detection: donkey anti-mouse IgG-APC (BD Pharmigen™, 1:500), or donkey anti-rabbit IgG-PE (Jackson ImmunoResearch, 1:500). Detailed antibody information is described in the Key Resources Table. […] Stained cells were analyzed using the LSR II Flow cytometer (BD PharMingen™). Data were analyzed using FlowJo™ software (Tree Star). […]

[4] = tested on: hPSC-derived ventricular cardiomyocytes; experiment: HEY2/ANF immunostaining of day 16 ventricular population; settings: day 16 population
Description: The EBs were dissociated as described above and the cells were plated onto 24 well culture dishes pre-coated with Matrigel™ (25% v/v, BD PharMingen™). Cells were cultured for 2-3 days and were fixed with 4% PFA in PBS for 15 min at room temperature. Cells were permeabilized and blocked with PBS containing 5% donkey serum, 0.1% TritonX™. The following antibodies were used for staining: mouse anti-cardiac isoform of cTNT (ThermoFisher Scientific, 1:200), rabbit anti-human HEY2 (Proteintech, 1:100), mouse anti-human ANF (Abcam, 1:100), rabbit anti-human cTNT (Abcam, 1:200), or rabbit anti-human CD90 (Abcam, 1:200). For detecting unconjugated primary antibodies, the following secondary antibodies were used: donkey anti-mouse IgG-Alexa Fluor™ 488 (ThermoFisher, 1:500), donkey anti-rabbit IgG-Alexa Fluor™ 555 (ThermoFisher, 1:500), donkey anti-rabbit IgG-Alexa488 (ThermoFisher, 1:500), donkey anti-mouse IgG-Alexa Fluor™ 555 (ThermoFisher, 1:500). Detailed antibody information is described in the Key Resources Table. Cells were stained with primary antibodies in staining buffer consisting of PBS with 0.1% TritonX, and 5% donkey serum overnight at 4° C. The stained cells were washed with PBS. […] Stained cells were analyzed using an EVOS Microscope (ThermoFisher) and Zeiss LSM700 confocal microscope (Zeiss).

FAO-related genes = experiment: RT-qPCR of FAO-related, mitochondrial and maturation genes in day 32 compact cardiomyocytes
Description: as §1

[5] = tested on: CD36^+SIRPA^+ compact cardiomyocytes; experiment: Flow cytometric analyses of CD36 and SIRPA expression
Description: The EBs were dissociated by incubation in Collagenase type 2 (0.5 mg/ml, Worthington) in HANKs buffer overnight at room temperature followed by TrypLE™ for 5 mins at 37° C. The following antibodies were used for staining: anti-SIRPa-PeCy7 (Biolegend, 1:1000), anti-CD36-FITC (BD PharMingen™, 1:200), anti-LDLR-BV421 (BD PharMingen™, 1:100), anti-cardiac isoform of cTNT (ThermoFisher Scientific, 1:2000), or anti-myosin light chain 2 (Abcam,1:1000). For unconjugated primary antibodies, the following secondary antibodies were used for detection: goat anti-mouse IgG-APC (BD PharMingen™, 1:500), or donkey anti-rabbit IgG-PE (Jackson ImmunoResearch, 1:500). Detailed antibody information is described in the Key Resources Table. […] Stained cells were analyzed using the LSR II Flow cytometer (BD PharMingen™). Data were analyzed using FlowJo™ software (Tree Star).
To evaluate the capacity of the day 18 compact cardiomyocytes to undergo FAO, we analyzed them for expression of the fatty acid transporter CD36, which is essential for transporting fatty acid into cells (FIG. 2B). Given that most mature cardiomyocytes in the human heart express CD36, flow cytometric analyses of this transporter would provide rapid quantitative measure of the maturation status of these cells.

## Cc1c[nH]c(-c2cnc(NCCNc3ccc(C#N)cn3)nc2-c2ccc(Cl)cc2Cl)n1 [CHIR, 6-((2-((4-(2,4-Dichlorophenyl)-5-(4-methyl-1H-imidazol-2-yl)pyrimidin-2-yl)amino)ethyl)amino)nicotinonitrile]
[1]
  proportion of Ki67^−cTNT^+ cardiomyocytes detected at day 16: significant increase
[2]
  expression of ANF: decrease
  expression of BMP10: decrease
  expression of HEY2: little effect
  expression of MYCN: significant increase
  expression of the fatty acid transporter CD36: reduced
  expression of the glucose transporter GLUT1: increased
[3]; XAV(−) vs. ventricular control, day 18
  proportion of cTNT^+ cells in the population: reduction

## O=c1[nH]c(-c2ccc(C(F)(F)F)cc2)nc2c1CSCC2 [XAV, 2-(4-(trifluoromethyl)phenyl)-7,8-dihydro-5H-thiopyrano[4,3-d]pyrimidin-4-ol]
[3]; XAV following the CHIR/IGF2-induced proliferative stage
  proportion of Ki67^+ cells in the population: significantly reduced
[3]; XAV for 2 days after CHIR/IGF2
  proportion of the non-cardiomyocytes: reduction

## neuregulin 1 [NRG]
[2]
  expression of ANF: increased
  expression of HEY2: reduced
[4]
  ANF+ cells by immunostaining: presence
  HEY+ compact cells by immunostaining: lack

## CCCCCCCCCCCCCCCC(=O)O [palmitate]
FAO-related genes
  expression of mitochondrial/electron transport chain genes ATP5A1, COX7A1, CKMT2: no effect
FAO-related genes; vs untreated populations
  expression of FAO pathway components CD36, FABP3, CPT1B, MLYCD: no effect
  level of ACC2: no effect

## CC(C)(Sc1ccc(CCN(CCCCC2CCCCC2)C(=O)NC2CCCCC2)cc1)C(=O)O [GW7647]
[5]; 1 μM added to day 18 CMs
  size of CD36+ population detected at day 32: significant increase

## N[C@@H](Cc1cc(I)c(Oc2ccc(O)c(I)c2)c(I)c1)C(=O)O [thyroid hormone (T3), triiodothyronine]
[5]; only observed in the presence of PPARα signaling
  effect on CD36 expression among other pathways tested: largest effect

## insulin-like growth factor 2 [IGF2]
[1]
  proportion of Ki67^−cTNT^+ cardiomyocytes detected at day 16: significant increase
[2]
  expression of ANF: no effect
  expression of BMP10: no effect
  expression of HEY2: no effect
  expression of MYCN: no effect

Reference: patent US20220228120A1, “Cardiomyocyte Compositions and Use Thereof” (UNIVERSITY HEALTH NETWORK, priority 2019, published 2022)
